The results in this text go back to ChEMBL document CHEMBL1158612, “Anti HIV-1 agents 5: synthesis and anti-HIV-1 activity of some N-arylsulfonyl-3-acetylindoles in vitro” (Bioorg Med Chem Lett, 2010).

In brackets after ≈: the same amount, converted by molar mass.

A short description of data set [1]: Cytotoxicity against human C8166 cells after 3 days by MTT assay. Type of data set: cell-based. For orientation: Tetrazolium assays rely on reduction of a dye to a coloured formazan, in cell work by metabolically active cells.
Data set [2] concerns Human immunodeficiency virus 1. The experiment in a line: Antiviral activity against HIV1 3B infected in C8166 cells assessed as inhibition of syncytia formation. Type of data set: functional, organism-based. The settings on record: Human immunodeficiency virus 1, 3B.
Data set [3] can be described thus: Therapeutic index, ratio of CC50 for human C8166 to EC50 for HIV1 3B.

Consider `CC(=O)c1cn(S(=O)(=O)c2ccc(Cl)cc2)c2ccc(C#N)cc12`, for which half-maximal cytotoxicity in data set [1] (CC50 at 72 h) was put at 65.2 µg/mL (≈ 182 µM). For the same molecule, the EC50 in data set [2] is 54.4 µg/mL (≈ 152 µM). Moreover, in data set [3] (C8166 cells), the selectivity ratio was determined as 1.19.
`O=S(=O)(c1ccc(Br)cc1)n1ccc2ccccc21`: the CC50 at 72 h in data set [1] is above 200 µg/mL. Also, the concentration giving a half-maximal response (EC50) in data set [2] stood at 20.4 µg/mL (≈ 60.7 µM). Moreover, in data set [3] (C8166 cells), the selectivity ratio is above 9.79.
On the same counts, the results for `O=S(=O)(c1ccccc1)n1ccc2ccccc21` are 47.1 µg/mL (≈ 183 µM), 0.93 µg/mL (≈ 3.61 µM) and 50.7.
`CC(=O)c1cn(S(=O)(=O)c2ccc(C)cc2)c2ccc([N+](=O)[O-])cc12`: the CC50 at 72 h in data set [1] is above 200 µg/mL. Also, in data set [2], the EC50 is above 200 µg/mL.
For `CC(=O)c1cn(S(=O)(=O)c2ccc(Cl)c([N+](=O)[O-])c2)c2ccccc12`, the midpoint of cytotoxicity in data set [1], the CC50 at 72 h, lay at 3.21 µg/mL (≈ 8.47 µM). Moreover, the EC50 in data set [2] came to 3.43 µg/mL (≈ 9.06 µM). In addition, the selectivity ratio in data set [3] (C8166 cells) came out at 0.94.
In turn, `CC(=O)c1cn(S(=O)(=O)c2ccc(C)cc2)c2ccc(C#N)cc12` came in with a CC50 at 72 h in data set [1] of 147 µg/mL (≈ 435 µM). In addition, the EC50 in data set [2] worked out at 76.9 µg/mL (≈ 227 µM). Further, in data set [3] (C8166 cells), the selectivity ratio was determined as 1.91.
In the case of `CC(=O)c1cn(S(=O)(=O)c2cccc([N+](=O)[O-])c2)c2ccccc12`, it took 164 µg/mL (≈ 477 µM) to reach half-maximal cytotoxicity in data set [1] (CC50 at 72 h). In addition, in data set [2], the EC50 was found to be 2.12 µg/mL (≈ 6.16 µM). The selectivity ratio in data set [3] (C8166 cells) worked out at 77.4.
In turn, `CC(=O)c1cn(S(=O)(=O)c2ccccc2)c2ccc(C#N)cc12` came in with a CC50 at 72 h in data set [1] of 66.2 µg/mL (≈ 204 µM). Moreover, the EC50 in data set [2] turned out to be 57.5 µg/mL (≈ 177 µM). Further, the selectivity ratio in data set [3] (C8166 cells) came out at 1.21.
Consider `CCc1ccc(S(=O)(=O)n2cc(C(C)=O)c3cc(C#N)ccc32)cc1`, for which the CC50 at 72 h in data set [1] amounted to 113 µg/mL (≈ 320 µM). Also, in data set [2], the half-maximal effective concentration (EC50) was 30.5 µg/mL (≈ 86.5 µM). Further, the selectivity ratio in data set [3] amounted to 3.7.
In the case of `CC(=O)c1cn(S(=O)(=O)c2cccc([N+](=O)[O-])c2)c2cc(C)ccc12`, it took 125 µg/mL (≈ 349 µM) to reach half-maximal cytotoxicity in data set [1] (CC50 at 72 h). In addition, in data set [2], the EC50 worked out at 1.02 µg/mL (≈ 2.85 µM). Besides, in data set [3] (C8166 cells), the selectivity ratio turned out to be 122.
For `CC(=O)c1cn(S(=O)(=O)c2ccc(Br)cc2)c2ccc([N+](=O)[O-])cc12` the same measures were 70.4 µg/mL (≈ 166 µM), 54.5 µg/mL (≈ 129 µM) and 1.29.
In turn, `CC(=O)c1cn(S(=O)(=O)c2ccc(Br)cc2)c2ccc(C#N)cc12` yielded a CC50 at 72 h in data set [1] above 200 µg/mL. In addition, in data set [2], the EC50 was above 200 µg/mL.
In data set [1], `O=[N+]([O-])c1cccc(S(=O)(=O)n2ccc3ccccc32)c1` came in with a CC50 at 72 h above 200 µg/mL. Further, the half-maximal effective concentration (EC50) in data set [2] stood at 0.74 µg/mL (≈ 2.45 µM). Further, the selectivity ratio in data set [3] (C8166 cells) was above 270.
Molecule `N#Cc1ccc2c(ccn2S(=O)(=O)c2ccccc2)c1` registered a CC50 at 72 h in data set [1] above 200 µg/mL. Besides, in data set [2], the EC50 was 3.23 µg/mL (≈ 11.4 µM). Further, in data set [3] (C8166 cells), the selectivity ratio was above 61.9.
For `CC(=O)c1cn(S(=O)(=O)c2ccccc2)c2ccc([N+](=O)[O-])cc12` the same measures were above 200 µg/mL, 45.8 µg/mL (≈ 133 µM) and above 4.36.
Regarding `Cc1cn([C@H]2C[C@H](N=[N+]=[N-])[C@@H](CO)O2)c(=O)[nH]c1=O` [ZIDOVUDINE], the midpoint of cytotoxicity in data set [1], the CC50 at 72 h, lay at 1140 µg/mL (≈ 4260 µM). In addition, in data set [2], the EC50 was found to be 0.00324 µg/mL (≈ 0.0121 µM). Also, the selectivity ratio in data set [3] was 353000.

In general, CC50 refers to the concentration at which the toxic effect on the cells reaches its halfway point. The low end stands for harm at low concentration, the high end for better tolerance by the cells. In general, EC50 refers to the concentration giving half of the maximal effect.
